Experimental data from ChEMBL document CHEMBL1201862, “PubChem BioAssay data set” (2004).
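Method: 48-hour compound exposure of cells in 96-well plates, five concentrations, linear interpolation of endpoints. The concentration for 50% growth inhibition is given as GI50.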 Active and inactive are the calls of the source. No stated cut-off is given here; in the data, active = GI50 up to about 1.1 µM and inactive = higher.

Columns and labels:
Assay in all cases: growth of human tumour cells (NCI), 48 h
UACC-62 = system: UACC-62
SNB-19 = system: SNB-19
T47D = system: T47D
MDA-N = system: MDA-N
IGROV-1 = system: IGROV-1
NCI-H226 = system: NCI-H226
ACHN = system: ACHN
HCC 2998 = system: HCC 2998
Hs-578T = system: Hs-578T
CAKI-1 = system: CAKI-1
OVCAR-5 = system: OVCAR-5
SN12C = system: SN12C
SF-539 = system: SF-539
MDA-MB-435 = system: MDA-MB-435
OVCAR-8 = system: OVCAR-8
K562 = system: K562
MDA-MB-231 = system: MDA-MB-231
COLO 205 = system: COLO 205
M14 = system: M14

Measured: GI50

Nc1nc(Cl)c(Cl)c(NCC2(O)CCC2)n1
inactive: UACC-62 36.2 µM | SNB-19 > 100 µM | T47D 2.76 µM | MDA-N > 100 µM | IGROV-1 45.6 µM | NCI-H226 23.6 µM | ACHN > 100 µM | HCC 2998 88.3 µM | Hs-578T 51.3 µM | CAKI-1 16.1 µM | OVCAR-5 > 100 µM | SN12C > 100 µM | SF-539 > 100 µM | MDA-MB-435 88.3 µM | OVCAR-8 92.9 µM | K562 24.7 µM | MDA-MB-231 74.1 µM

Cc1c(C)c(S(=O)(=O)N(CCCCCN)OCCCN)c(C)c2c1OC(C)(C)CC2
inactive: UACC-62 12.9 µM | SNB-19 7.91 µM | T47D 16.6 µM | MDA-N 4.73 µM | IGROV-1 2.82 µM | NCI-H226 8.89 µM | ACHN 17.2 µM | HCC 2998 2.27 µM | Hs-578T 6.73 µM | CAKI-1 20.5 µM | OVCAR-5 24.8 µM | SN12C 16.6 µM | SF-539 > 25.3 µM | COLO 205 12.2 µM | M14 27.7 µM | MDA-MB-435 5.82 µM | OVCAR-8 15.6 µM | K562 5.07 µM | MDA-MB-231 5.89 µM

Nc1cccc2cc(Cl)cnc12
inactive: UACC-62 56.8 µM | SNB-19 > 100 µM | T47D 15.2 µM | MDA-N > 100 µM | IGROV-1 > 100 µM | NCI-H226 > 100 µM | ACHN > 100 µM | HCC 2998 > 100 µM | Hs-578T 36.3 µM | CAKI-1 > 100 µM | OVCAR-5 > 100 µM | SN12C > 100 µM | SF-539 > 100 µM | COLO 205 > 100 µM | M14 > 100 µM | MDA-MB-435 > 100 µM | OVCAR-8 > 100 µM | K562 > 100 µM | MDA-MB-231 > 100 µM

C/C=C/[C@H](O[Si](C)(C)C(C)(C)C)[C@@H](O)/C=C/C(=O)OCC
inactive: UACC-62 18.8 µM | SNB-19 14.3 µM | T47D 30.4 µM | MDA-N 19.6 µM | IGROV-1 22.8 µM | NCI-H226 29.4 µM | ACHN 16.6 µM | HCC 2998 16.4 µM | Hs-578T 29.9 µM | CAKI-1 18.2 µM | OVCAR-5 31.1 µM | SN12C 23.1 µM | SF-539 23.9 µM | COLO 205 20.1 µM | MDA-MB-435 19.5 µM | OVCAR-8 18.6 µM | K562 21.7 µM | MDA-MB-231 25.8 µM

O=c1oc2cccnc2n1CCN1CCN(c2ccc(Oc3ccccc3)cc2)CC1
inactive: SNB-19 > 100 µM | T47D 10.4 µM | MDA-N 79.6 µM | IGROV-1 > 100 µM | ACHN 35 µM | HCC 2998 52.8 µM | Hs-578T > 100 µM | CAKI-1 > 100 µM | OVCAR-5 > 100 µM | SF-539 > 100 µM | M14 89.7 µM | MDA-MB-435 63.2 µM | OVCAR-8 > 100 µM | K562 12.4 µM | MDA-MB-231 > 100 µM

Clc1ccc(CSCCc2ccncc2)cc1Cl
inactive: UACC-62 15.3 µM | SNB-19 17.8 µM | T47D 26.3 µM | MDA-N 20.2 µM | IGROV-1 20.8 µM | NCI-H226 22 µM | ACHN 21.7 µM | HCC 2998 18.2 µM | Hs-578T 23.4 µM | CAKI-1 38.5 µM | OVCAR-5 23.3 µM | SN12C 17.4 µM | SF-539 17 µM | COLO 205 14.2 µM | M14 17.2 µM | MDA-MB-435 22.6 µM | OVCAR-8 19.7 µM | K562 19.3 µM | MDA-MB-231 15.4 µM

NNC(=O)CCSc1ccccc1
inactive: UACC-62 > 100 µM | SNB-19 > 100 µM | T47D > 100 µM | MDA-N > 100 µM | IGROV-1 > 100 µM | NCI-H226 > 100 µM | ACHN > 100 µM | HCC 2998 > 100 µM | Hs-578T > 100 µM | CAKI-1 > 100 µM | OVCAR-5 > 100 µM | SN12C > 100 µM | SF-539 > 100 µM | COLO 205 > 100 µM | M14 > 100 µM | MDA-MB-435 > 100 µM | OVCAR-8 > 100 µM | K562 > 100 µM | MDA-MB-231 > 100 µM

Cc1cc(NCCCCCCCCCC[n+]2c(C)cc(N)c3ccccc32)c2ccccc2n1
inactive: UACC-62 1.16 µM | NCI-H226 2.67 µM | ACHN 2.31 µM | CAKI-1 9.68 µM | OVCAR-5 4.2 µM | SF-539 1.82 µM | M14 2.04 µM
active: SNB-19 0.427 µM | T47D 0.333 µM | MDA-N 1.04 µM | IGROV-1 0.419 µM | HCC 2998 0.675 µM | Hs-578T 0.375 µM | SN12C 0.733 µM | COLO 205 0.346 µM | MDA-MB-435 1.01 µM | OVCAR-8 0.875 µM | K562 0.0409 µM | MDA-MB-231 0.652 µM

N#Cc1nc(CCCCCN2C(=O)c3ccccc3C2=O)oc1N
inactive: SNB-19 > 100 µM | T47D > 100 µM | MDA-N > 100 µM | IGROV-1 > 100 µM | NCI-H226 > 100 µM | ACHN > 100 µM | HCC 2998 16.3 µM | Hs-578T > 100 µM | CAKI-1 > 100 µM | OVCAR-5 > 100 µM | SN12C > 100 µM | SF-539 > 100 µM | COLO 205 > 100 µM | M14 > 100 µM | MDA-MB-435 > 100 µM | OVCAR-8 > 100 µM | K562 17 µM | MDA-MB-231 > 100 µM

COc1cc2c(cc1OC)C(=O)/C(=C/c1ccccc1)CC2
inactive: SNB-19 27.7 µM | T47D 26.1 µM | MDA-N 12.4 µM | IGROV-1 38.9 µM | NCI-H226 41.4 µM | ACHN 53.5 µM | HCC 2998 22.6 µM | Hs-578T > 100 µM | CAKI-1 17.1 µM | OVCAR-5 27.4 µM | SN12C 43.7 µM | SF-539 47.5 µM | COLO 205 22.1 µM | M14 > 100 µM | MDA-MB-435 8.09 µM | OVCAR-8 45.5 µM | K562 34.4 µM | MDA-MB-231 > 100 µM

C[C@@H](c1ccccc1)N1C[C@@H](c2ccc3c(c2)OCO3)[C@@H]2C(=O)CCC[C@@H]21
inactive: UACC-62 25.5 µM | SNB-19 75 µM | T47D 37.3 µM | MDA-N > 100 µM | IGROV-1 41.1 µM | NCI-H226 > 100 µM | ACHN 35.2 µM | HCC 2998 30.1 µM | Hs-578T 72.9 µM | CAKI-1 > 100 µM | OVCAR-5 > 100 µM | SN12C 59.8 µM | COLO 205 20.6 µM | M14 19.5 µM | MDA-MB-435 67.8 µM | OVCAR-8 > 100 µM | K562 64.1 µM | MDA-MB-231 63.8 µM

O=C(Nc1ccc(Br)cc1)c1c(-c2ccccc2)c2ccc(O)cc2oc1=O
inactive: T47D > 10 µM | MDA-N > 10 µM | IGROV-1 > 10 µM | NCI-H226 > 10 µM | ACHN > 10 µM | HCC 2998 > 10 µM | Hs-578T > 10 µM | CAKI-1 > 10 µM | OVCAR-5 > 10 µM | SN12C > 10 µM | SF-539 > 10 µM | COLO 205 > 10 µM | M14 > 10 µM | MDA-MB-435 > 10 µM | OVCAR-8 > 10 µM | K562 > 10 µM | MDA-MB-231 > 10 µM

Cc1cc(C)c(OC(=O)Nc2cccc3ccccc23)c(-c2ccccc2)c1
inactive: UACC-62 30.4 µM | T47D 48.6 µM | MDA-N 29 µM | IGROV-1 36.5 µM | NCI-H226 18.3 µM | ACHN 23.7 µM | HCC 2998 27.7 µM | Hs-578T 25 µM | CAKI-1 33.7 µM | OVCAR-5 73.8 µM | SN12C 38.2 µM | SF-539 57 µM | COLO 205 50.1 µM | M14 29.1 µM | MDA-MB-435 30.1 µM | OVCAR-8 33.6 µM | K562 41.8 µM | MDA-MB-231 25.5 µM

COc1ccc2c(c1)[C@@]13CCN4CC5=CCO[C@H]6CC(=O)N2[C@H]1[C@H]6[C@H]5C[C@H]43
inactive: UACC-62 > 100 µM | SNB-19 > 100 µM | T47D > 100 µM | MDA-N > 100 µM | IGROV-1 34.9 µM | ACHN > 100 µM | HCC 2998 > 100 µM | Hs-578T 33.7 µM | CAKI-1 > 100 µM | OVCAR-5 > 100 µM | SN12C > 100 µM | SF-539 > 100 µM | COLO 205 84.9 µM | M14 > 100 µM | MDA-MB-435 > 100 µM | OVCAR-8 59.2 µM | MDA-MB-231 > 100 µM
active: NCI-H226 0.178 µM

O=c1c(SSc2coc3cc(F)ccc3c2=O)coc2cc(F)ccc12
inactive: UACC-62 16.1 µM | SNB-19 43.5 µM | T47D 20.7 µM | MDA-N 13.5 µM | IGROV-1 2.95 µM | NCI-H226 > 100 µM | ACHN 6.92 µM | HCC 2998 16.1 µM | Hs-578T 14.3 µM | CAKI-1 20.1 µM | OVCAR-5 37.8 µM | SN12C 15.2 µM | SF-539 28.7 µM | COLO 205 17.4 µM | MDA-MB-435 11.1 µM | OVCAR-8 7.78 µM | K562 19.9 µM | MDA-MB-231 11.5 µM
